Values quoted from earlier work in patent CN114831954A, “一种左氧氟沙星片” (priority 2022, dated 2022).

Key:
[1] = background statement
[2] = tested on: Gram-positive and Gram-negative bacteria [革兰氏阳性菌和阴性菌]; conditions: background statement
[3] = in vivo, po

CC1COc2c(N3CCN(C)CC3)c(F)cc3c(=O)c(C(=O)O)cn1c23 (stereo not shown) [氧氟沙星]
biological half-life [1]: ~6 h
antibacterial effect ([2]; Gram-positive and Gram-negative bacteria): 对革兰氏阳性菌和阴性菌均有光谱的效果
concentration dependence of antibacterial effect [2]: 具有明显的浓度依赖性
gastrointestinal adverse reactions [3]: 有胃肠不良反应
